Laboratory results taken from PMC12102759 (Protein Science : A Publication of the Protein Society, 2025).

System: PABPC1 PABC
Type: binding, human
Details: DMS-BM library, bait PABPC1 PABC, row aa = residue at this position; for DMS-derived PSSM value, position P6 / DMS-derived PSSM value, position P11 / DMS-derived PSSM value, position P13 / DMS-derived PSSM value (averaged), position P11 / DMS-derived PSSM value, position P4: P = wild type; for DMS-derived PSSM value, position L2 / DMS-derived PSSM value (averaged), position L2: L = wild type; for DMS-derived PSSM value, position A8 / DMS-derived PSSM value (averaged), position A6: A = wild type; for DMS-derived PSSM value, position E10 / DMS-derived PSSM value, position E8 / DMS-derived PSSM value (averaged), position E8: E = wild type
[1] = prey ATXN2, peptide TLNPNAKEFNPRSFSQ, R = wild type
[2] = prey ATXN2, peptide KSTLNPNAKEFNPRSF
[3] = prey ATXN2, peptide TLNPNAKEFNPRSFSQ
[4] = prey ATXN2, TLNPNAKEFNPRSF(averaged) over the two overlapping peptides, N = wild type
[5] = prey ATXN2, peptide TLNPNAKEFNPRSFSQ, N = wild type
[6] = prey ATXN2, TLNPNAKEFNPRSF(averaged) over the two overlapping peptides
[7] = prey ATXN2, peptide KSTLNPNAKEFNPRSF, N = wild type
[8] = prey ATXN2, peptide KSTLNPNAKEFNPRSF, K = wild type
[9] = prey ATXN2, TLNPNAKEFNPRSF(averaged) over the two overlapping peptides, F = wild type
[10] = prey ATXN2, peptide TLNPNAKEFNPRSFSQ, S = wild type
[11] = prey ATXN2, peptide TLNPNAKEFNPRSFSQ, F = wild type

TLNPNAKEFNPRSFSQ R12W (TLNPNAKEFNPWSFSQ)
DMS-derived PSSM value, position R12 [1]: 0.01782

KSTLNPNAKEFNPRSF R14K (KSTLNPNAKEFNPKSF)
DMS-derived PSSM value, position R14 (prey ATXN2, peptide KSTLNPNAKEFNPRSF, R = wild type): 0.002275

KSTLNPNAKEFNPRSF P6H (KSTLNHNAKEFNPRSF)
DMS-derived PSSM value, position P6 [2]: 0.01713

TLNPNAKEFNPRSFSQ L2W (TWNPNAKEFNPRSFSQ)
DMS-derived PSSM value, position L2 [3]: 0.1455

TLNPNAKEFNPRSFSQ R12K (TLNPNAKEFNPKSFSQ)
DMS-derived PSSM value, position R12 [1]: 0.01776

TLNPNAKEFNPRSFSQ P11E (TLNPNAKEFNERSFSQ)
DMS-derived PSSM value, position P11 [3]: 0.0006031

KSTLNPNAKEFNPRSF P13K (KSTLNPNAKEFNKRSF)
DMS-derived PSSM value, position P13 [2]: 0

TLNPNAKEFNPRSF(averaged) N5S (TLNPSAKEFNPRSF)
DMS-derived PSSM value (averaged), position N5 [4]: 0.02321

TLNPNAKEFNPRSFSQ N3R (TLRPNAKEFNPRSFSQ)
DMS-derived PSSM value, position N3 [5]: 0.02401

KSTLNPNAKEFNPRSF A8L (KSTLNPNLKEFNPRSF)
DMS-derived PSSM value, position A8 [2]: 0

KSTLNPNAKEFNPRSF P6M (KSTLNMNAKEFNPRSF)
DMS-derived PSSM value, position P6 [2]: 0

TLNPNAKEFNPRSF(averaged) A6G (TLNPNGKEFNPRSF)
DMS-derived PSSM value (averaged), position A6 [6]: 0

TLNPNAKEFNPRSF(averaged) L2H (THNPNAKEFNPRSF)
DMS-derived PSSM value (averaged), position L2 [6]: 0

KSTLNPNAKEFNPRSF A8H (KSTLNPNHKEFNPRSF)
DMS-derived PSSM value, position A8 [2]: 0

TLNPNAKEFNPRSF(averaged) P11W (TLNPNAKEFNWRSF)
DMS-derived PSSM value (averaged), position P11 [6]: 0.01933

KSTLNPNAKEFNPRSF N7L (KSTLNPLAKEFNPRSF)
DMS-derived PSSM value, position N7 [7]: 0.04259

KSTLNPNAKEFNPRSF K9L (KSTLNPNALEFNPRSF)
DMS-derived PSSM value, position K9 [8]: 0.07486

TLNPNAKEFNPRSF(averaged) N10W (TLNPNAKEFWPRSF)
DMS-derived PSSM value (averaged), position N10 [4]: 0.1093

TLNPNAKEFNPRSFSQ P11K (TLNPNAKEFNKRSFSQ)
DMS-derived PSSM value, position P11 [3]: 0

TLNPNAKEFNPRSFSQ N3G (TLGPNAKEFNPRSFSQ)
DMS-derived PSSM value, position N3 [5]: 0

KSTLNPNAKEFNPRSF P6V (KSTLNVNAKEFNPRSF)
DMS-derived PSSM value, position P6 [2]: 0.3743

TLNPNAKEFNPRSF(averaged) P11E (TLNPNAKEFNERSF)
DMS-derived PSSM value (averaged), position P11 [6]: 0.00334

TLNPNAKEFNPRSF(averaged) F9H (TLNPNAKEHNPRSF)
DMS-derived PSSM value (averaged), position F9 [9]: 0

KSTLNPNAKEFNPRSF N12I (KSTLNPNAKEFIPRSF)
DMS-derived PSSM value, position N12 [7]: 0.02863

TLNPNAKEFNPRSFSQ S13I (TLNPNAKEFNPRIFSQ)
DMS-derived PSSM value, position S13 [10]: 0

KSTLNPNAKEFNPRSF S2Y (KYTLNPNAKEFNPRSF)
DMS-derived PSSM value, position S2 (prey ATXN2, peptide KSTLNPNAKEFNPRSF, S = wild type): 0.2105

KSTLNPNAKEFNPRSF P6F (KSTLNFNAKEFNPRSF)
DMS-derived PSSM value, position P6 [2]: 0

TLNPNAKEFNPRSF(averaged) A6S (TLNPNSKEFNPRSF)
DMS-derived PSSM value (averaged), position A6 [6]: 0.04153

TLNPNAKEFNPRSFSQ S13Q (TLNPNAKEFNPRQFSQ)
DMS-derived PSSM value, position S13 [10]: 0.0185

TLNPNAKEFNPRSFSQ F9H (TLNPNAKEHNPRSFSQ)
DMS-derived PSSM value, position F9 [11]: 0

TLNPNAKEFNPRSF(averaged) F9E (TLNPNAKEENPRSF)
DMS-derived PSSM value (averaged), position F9 [9]: 0.02703

KSTLNPNAKEFNPRSF A8W (KSTLNPNWKEFNPRSF)
DMS-derived PSSM value, position A8 [2]: 0

TLNPNAKEFNPRSFSQ P4L (TLNLNAKEFNPRSFSQ)
DMS-derived PSSM value, position P4 [3]: 0.05708

KSTLNPNAKEFNPRSF P6N (KSTLNNNAKEFNPRSF)
DMS-derived PSSM value, position P6 [2]: 0

TLNPNAKEFNPRSF(averaged) N5M (TLNPMAKEFNPRSF)
DMS-derived PSSM value (averaged), position N5 [4]: 0.3686

KSTLNPNAKEFNPRSF N12L (KSTLNPNAKEFLPRSF)
DMS-derived PSSM value, position N12 [7]: 0

KSTLNPNAKEFNPRSF E10D (KSTLNPNAKDFNPRSF)
DMS-derived PSSM value, position E10 [2]: 0

TLNPNAKEFNPRSFSQ S15R (TLNPNAKEFNPRSFRQ)
DMS-derived PSSM value, position S15 [10]: 0.01068

TLNPNAKEFNPRSFSQ E8F (TLNPNAKFFNPRSFSQ)
DMS-derived PSSM value, position E8 [3]: 0

TLNPNAKEFNPRSF(averaged) E8D (TLNPNAKDFNPRSF)
DMS-derived PSSM value (averaged), position E8 [6]: 0

KSTLNPNAKEFNPRSF N12Q (KSTLNPNAKEFQPRSF)
DMS-derived PSSM value, position N12 [7]: 0.02863

TLNPNAKEFNPRSF(averaged) L2P (TPNPNAKEFNPRSF)
DMS-derived PSSM value (averaged), position L2 [6]: 0.01878

TLNPNAKEFNPRSFSQ F14Y (TLNPNAKEFNPRSYSQ)
DMS-derived PSSM value, position F14 [11]: 0.07249

KSTLNPNAKEFNPRSF F11S (KSTLNPNAKESNPRSF)
DMS-derived PSSM value, position F11 (prey ATXN2, peptide KSTLNPNAKEFNPRSF, F = wild type): 0

KSTLNPNAKEFNPRSF A8N (KSTLNPNNKEFNPRSF)
DMS-derived PSSM value, position A8 [2]: 0

KSTLNPNAKEFNPRSF K9A (KSTLNPNAAEFNPRSF)
DMS-derived PSSM value, position K9 [8]: 0.002649

TLNPNAKEFNPRSFSQ L2I (TINPNAKEFNPRSFSQ)
DMS-derived PSSM value, position L2 [3]: 0.001607

TLNPNAKEFNPRSF(averaged) N3H (TLHPNAKEFNPRSF)
DMS-derived PSSM value (averaged), position N3 [4]: 0

TLNPNAKEFNPRSF(averaged) T1L (LLNPNAKEFNPRSF)
DMS-derived PSSM value (averaged), position T1 (prey ATXN2, TLNPNAKEFNPRSF(averaged) over the two overlapping peptides, T = wild type): 0.06577

TLNPNAKEFNPRSFSQ E8L (TLNPNAKLFNPRSFSQ)
DMS-derived PSSM value, position E8 [3]: 0

KSTLNPNAKEFNPRSF A8S (KSTLNPNSKEFNPRSF)
DMS-derived PSSM value, position A8 [2]: 0

KSTLNPNAKEFNPRSF E10W (KSTLNPNAKWFNPRSF)
DMS-derived PSSM value, position E10 [2]: 0

KSTLNPNAKEFNPRSF T3M (KSMLNPNAKEFNPRSF)
DMS-derived PSSM value, position T3 (prey ATXN2, peptide KSTLNPNAKEFNPRSF, T = wild type): 0.08084

TLNPNAKEFNPRSF(averaged) L2I (TINPNAKEFNPRSF)
DMS-derived PSSM value (averaged), position L2 [6]: 0.0008035

TLNPNAKEFNPRSFSQ P4F (TLNFNAKEFNPRSFSQ)
DMS-derived PSSM value, position P4 [3]: 0.01173

TLNPNAKEFNPRSFSQ K7W (TLNPNAWEFNPRSFSQ)
DMS-derived PSSM value, position K7 (prey ATXN2, peptide TLNPNAKEFNPRSFSQ, K = wild type): 0.03322

TLNPNAKEFNPRSFSQ N10Y (TLNPNAKEFYPRSFSQ)
DMS-derived PSSM value, position N10 [5]: 0.09858

TLNPNAKEFNPRSFSQ N3T (TLTPNAKEFNPRSFSQ)
DMS-derived PSSM value, position N3 [5]: 0.01993

KSTLNPNAKEFNPRSF P13T (KSTLNPNAKEFNTRSF)
DMS-derived PSSM value, position P13 [2]: 0.0002514

TLNPNAKEFNPRSF(averaged) A6I (TLNPNIKEFNPRSF)
DMS-derived PSSM value (averaged), position A6 [6]: 0.01774

KSTLNPNAKEFNPRSF A8V (KSTLNPNVKEFNPRSF)
DMS-derived PSSM value, position A8 [2]: 0.4196

TLNPNAKEFNPRSF(averaged) E8H (TLNPNAKHFNPRSF)
DMS-derived PSSM value (averaged), position E8 [6]: 0.2075

KSTLNPNAKEFNPRSF N12R (KSTLNPNAKEFRPRSF)
DMS-derived PSSM value, position N12 [7]: 0.008293

TLNPNAKEFNPRSF(averaged) N3R (TLRPNAKEFNPRSF)
DMS-derived PSSM value (averaged), position N3 [4]: 0.012

TLNPNAKEFNPRSF(averaged) N10F (TLNPNAKEFFPRSF)
DMS-derived PSSM value (averaged), position N10 [4]: 0.02798

TLNPNAKEFNPRSF(averaged) S13L (TLNPNAKEFNPRLF)
DMS-derived PSSM value (averaged), position S13 (prey ATXN2, TLNPNAKEFNPRSF(averaged) over the two overlapping peptides, S = wild type): 0.2429

TLNPNAKEFNPRSF(averaged) N3A (TLAPNAKEFNPRSF)
DMS-derived PSSM value (averaged), position N3 [4]: 0

KSTLNPNAKEFNPRSF N7H (KSTLNPHAKEFNPRSF)
DMS-derived PSSM value, position N7 [7]: 0.03167

TLNPNAKEFNPRSFSQ P4D (TLNDNAKEFNPRSFSQ)
DMS-derived PSSM value, position P4 [3]: 0

TLNPNAKEFNPRSFSQ F14W (TLNPNAKEFNPRSWSQ)
DMS-derived PSSM value, position F14 [11]: 0.01201
